# Measurements: patent US20130078718A1, “CONVERSION OF VASCULAR ENDOTHELIAL CELLS INTO MULTIPOTENT STEM-LIKE CELLS” (PRESIDENT AND FELLOWS OF HARVARD COLLEGE, priority 2010, published 2013)
# How the values were obtained:
# HUVEC and HCMEC = experiment: Differentiation of treated endothelial cells in osteogenic, chondrogenic or adipogenic culture medium; format: cell-based, human; conditions: for alkaline phosphatase staining (osteoblasts) / alizarin red staining (matrix calcification) / gene expression of osteocalcin, osterix, COL2A1, SOX9, adiponectin, PPARγ2 (real-time quantitative PCR) / TIE2 expression in osteoblasts, chondrocytes and adipocytes derived from endothelial cells (immunoblotting): 48 hours treatment; for alkaline phosphatase staining (osteoblasts): then 7 days osteogenic medium; for alizarin red staining (matrix calcification): then 21 days osteogenic medium; for gene expression of osteocalcin, osterix, COL2A1, SOX9, adiponectin, PPARγ2 (real-time quantitative PCR): then osteogenic 7 days, chondrogenic 14 days or adipogenic 7 days, compared to vehicle; for differentiation by alkaline phosphatase, alizarin red, alcian blue or oil red O staining / protein expression of osterix, SOX9 and PPARγ2 (immunoblotting) / expression of endothelial markers TIE2, vWF, VE-cadherin, TIE1 in osteoblasts, chondrocytes, adipocytes derived from endothelial cells (immunoblot): 48 h treatment; for differentiation by alkaline phosphatase, alizarin red, alcian blue or oil red O staining: then differentiation medium 7-21 d; for protein expression of osterix, SOX9 and PPARγ2 (immunoblotting): then osteogenic 7 d, chondrogenic 14 d or adipogenic 7 d; for TIE2 expression in osteoblasts, chondrocytes and adipocytes derived from endothelial cells (immunoblotting) / expression of endothelial markers TIE2, vWF, VE-cadherin, TIE1 in osteoblasts, chondrocytes, adipocytes derived from endothelial cells (immunoblot): HCMEC, then differentiation medium
# Method: RNA extractions were performed using the RNeasy Mini kit (Qiagen) and protocol. RNA samples were submitted to a core facility (Biopolymers Facility, Department of Genetics, Harvard Medical School) where real-time PCR experiments were conducted using the Syber Green PCR system (ABI) on an ABI 7500 cycler, with 40 cycles per sample. Cycling temperatures were as follows: denaturing 95° C.; annealing 60° C.; extension, 70° C. The following primers (Integrated DNA Technologies) were used: […]
# Cells were grown in StemPro osteogenic, chondrogenic, or adipogenic culture medium (Invitrogen). Alkaline phosphatase staining was performed using the alkaline phosphatase kit and protocol (Sigma-Aldrich) on cultures grown in osteogenic medium for 7 days to detect osteoblasts. Alizarin Red (Sigma-Aldrich) staining was performed for 30 minutes on cultures grown in osteogenic medium for 21 days to detect matrix calcification. Alcian Blue (Sigma) staining was used to stain chondrocyte proteoglycans for 5 minutes in cultures grown in chondrogenic medium for 14 days. Oil Red O (Sigma-Aldrich) staining was performed for 15 minutes on cultures grown in adipogenic medium for 7 days.
# Cells were grown in StemPro osteogenic, chondrogenic, or adipogenic culture medium (Invitrogen). Alkaline phosphatase staining was performed using the alkaline phosphatase kit and protocol (Sigma-Aldrich) on cultures grown in osteogenic medium for 7 d to detect osteoblasts. Alizarin Red (Sigma-Aldrich) staining was performed for 30 min on cultures grown in osteogenic medium for 21 d to detect matrix calcification. Alcian Blue (Sigma) staining was used to stain chondrocyte proteoglycans for 5 minutes in cultures grown in chondrogenic medium for 14 d. Oil Red O (Sigma-Aldrich) staining was performed for 15 min on cultures grown in adipogenic medium for 7 d. For in vivo analysis, endothelial cells were labeled with fluorescent quantum dots using the Qtracker 525 Cell Labeling Kit (Invitrogen). Cells were treated in culture to induce EndMT then absorbed into OPLA polylactic acid scaffolds (BD Biosciences). Scaffolds were surgically implanted subcutaneously into immunodeficient nude mice (Nu/Nu strain; Charles River Laboratories). Local injection of StemPro differentiation medium (described above) was performed in the area of the implants every 72 h for 6 weeks. Scaffolds were cryosectioned and stained with Alizarin Red, Alcian Blue, or Oil Red O as described above. All procedures were reviewed and approved by the Institutional Animal Care and Use Committee at Harvard Medical School.
# ALK2 with ALK5 = biological target: T1, ALK2 with ALK5 (Homo sapiens, UniProt Q04771); experiment: Interaction of ALK2 with ALK5: immunoprecipitation of ALK2, immunoblotting for ALK5; format: cell-based; conditions: 10 ng ml−1, 15 min
# T1 construct: endogenous in cells; host or cells: HUVEC
# T1 sequence (Q04771 21-509): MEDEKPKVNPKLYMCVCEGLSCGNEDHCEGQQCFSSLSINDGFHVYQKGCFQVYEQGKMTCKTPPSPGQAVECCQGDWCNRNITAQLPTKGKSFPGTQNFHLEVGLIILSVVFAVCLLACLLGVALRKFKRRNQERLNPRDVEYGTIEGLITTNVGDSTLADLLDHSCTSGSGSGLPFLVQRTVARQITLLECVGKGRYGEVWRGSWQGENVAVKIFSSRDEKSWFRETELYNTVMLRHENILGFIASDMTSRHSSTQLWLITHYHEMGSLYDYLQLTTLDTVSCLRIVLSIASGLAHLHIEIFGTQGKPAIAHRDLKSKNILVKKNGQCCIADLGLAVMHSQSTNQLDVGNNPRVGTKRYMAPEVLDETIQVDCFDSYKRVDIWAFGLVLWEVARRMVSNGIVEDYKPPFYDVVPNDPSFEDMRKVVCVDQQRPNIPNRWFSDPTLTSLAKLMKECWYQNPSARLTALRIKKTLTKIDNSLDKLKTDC
# Method: Human umbilical vein endothelial cells (HUVEC) and human cutaneous microvascular endothelial cells (HCMEC) isolated as previously described (35). Cells were tested for purity and found to express no markers for lymphatic endothelial cells or stromal cells (pericytes, smooth muscle cells, etc.) (36). This was reconfirmed by flow cytometry analysis (data not shown). Clonal populations were isolated with PYREX 8×8 mm cloning cylinders (Corning) and shown to respond in a manner identical to that of the cultures used for our experiments (FIG. 25B-D). Cells were grown in culture using EGM-2 medium (Cambrex), containing 10% FBS and 1% Penicillin/Streptomycin, followed by human endothelial serum free medium (Gibco) 24 h prior to all experimental conditions. Bone marrow derived mesenchymal stem cells (ScienCell Research Laboratories) were grown in mesenchymal stem cell medium (ScienCell Research Laboratories). Bone marrow derived hematopoietic stem cells (Lonza) were grown in HPGM medium (Lonza). Human corneal fibroblasts, from a stock provided by Dr. Elizabeth Hay (Harvard Medical School), were grown in RPMI medium, containing 10% FBS and 1% Penicillin/Streptomycin. Primary human osteoblasts, chondrocytes, and adipocytes and their respective growth media were obtained from Cell Applications, Inc. […] Recombinant VEGF (R&D Systems) was added to cultures at a concentration of 25 ng ml^-1. Dorsomorphin (Sigma-Aldrich) was added to cultures at a concentration of 5 μM. All experiments for this study were performed at minimum in triplicate. Immunoassays were performed using the following antibodies at concentrations (and using protocols) recommended by the respective manufacturers: […] Stressgen), phospho-Smad2 (3101), Smad2 (3122), phospho-Smad5 (9516), Smad5 (9517; […] Santa Cruz Biotechnology), osterix (ab22552), adiponectin (ab22554), N-cadherin (ab76057), NG2 (ab83508), vWF (ab68545; Abcam); CD31 (IR610; Dako), […]; GenScript); α-SMA ([…]), β-actin (A1978; Sigma-Aldrich). […] Images were acquired using a Nikon 80i fluorescence microscope.
Substance,alkaline phosphatase staining (osteoblasts) (HUVEC and HCMEC),alizarin red staining (matrix calcification) (HUVEC and HCMEC),"gene expression of osteocalcin, osterix, COL2A1, SOX9, adiponectin, PPARγ2 (real-time quantitative PCR) (HUVEC and HCMEC)","differentiation by alkaline phosphatase, alizarin red, alcian blue or oil red O staining (HUVEC and HCMEC)","protein expression of osterix, SOX9 and PPARγ2 (immunoblotting) (HUVEC and HCMEC)","TIE2 expression in osteoblasts, chondrocytes and adipocytes derived from endothelial cells (immunoblotting) (HUVEC and HCMEC)","expression of endothelial markers TIE2, vWF, VE-cadherin, TIE1 in osteoblasts, chondrocytes, adipocytes derived from endothelial cells (immunoblot) (HUVEC and HCMEC)",ALK5 in ALK2 immunoprecipitates (ALK2 with ALK5),"staining of clonal populations for osteoblasts, chondrocytes or adipocytes (AP, AR, AB, OR) (HUVEC and HCMEC; three clonal populations of HUVEC and HCMEC, differentiation medium)"
"BMP4: Recombinant BMP4 protein (R&D Systems), ALK2 activating ligand, used at 10 ng/mL",strong positive staining,high levels of matrix calcification,dramatic increases,differentiated into other cell types,increases in protein expression,strong expression of TIE2,showed expression of these endothelial markers,presence of ALK5,–
"TGF-β2: Recombinant TGF-β2 protein (R&D Systems), ALK2 activating ligand, used at 10 ng/mL",strong positive staining,high levels of matrix calcification,dramatic increases,differentiated into other cell types,increases in protein expression,strong expression of TIE2,showed expression of these endothelial markers,presence of ALK5,stained positive
